Results as given in patent US20220401483A1, “COMBINATION OF A T CELL THERAPY AND (S)-3-[4-(4-MORPHOLIN-4-YLMETHYL-BENZYLOXY)-L-OXO-L,3-DIHYDRO-ISOINDOL-2-YL]-PIPERIDINE-2,6-DIONE” (Juno Therapeutics, Inc., priority 2019, published 2022).

Tests used:
Aiolos = assay: Intracellular Aiolos expression in stimulated anti-CD19 CAR-expressing T cells (flow cytometry MFI); format: cell-based, human
Method: T cell compositions containing anti-CD19 CAR-expressing T cells were generated from leukapheresis samples from three healthy human adult donors by a process including immunoaffinity-based selection of T cells (including CD4+ and CD8+ cells) from the samples, resulting in two compositions, enriched for CD8+ and CD4+ cells, respectively. The cells were incubated in the presence of (S)-3-[4-(4-morpholin-4-ylmethyl-benzyloxy)-1-oxo-1,3-dihydro-isoindol-2-yl]-piperidine-2,6-dione (Compound A) or 3-(5-amino-2-methyl-4-oxo-4H-quinazolin-3-yl)-piperidine-2,6-dione (Compound B), and expression of the transcription factors Ikaros and Aiolos was assessed. Cells of the enriched CD4+ and CD8+ compositions were separately activated with anti-CD3/anti-CD28 beads and subjected to lentiviral transduction with a vector encoding an anti-CD19 CAR. The anti-CD19 CAR contained an anti-CD19 scFv derived from a murine antibody (variable region derived from FMC63), an immunoglobulin-derived spacer, a transmembrane domain derived from CD28, a costimulatory region derived from 4-1BB, and a CD3-zeta intracellular signaling domain. The expression construct in the viral vector further contained sequences encoding a truncated receptor, which served as a surrogate marker for CAR expression, which was separated from the CAR sequence by a T2A ribosome skip sequence. Transduced populations then were separately incubated in the presence of stimulating reagents for cell expansion. Expanded CD8+ and CD4+ cells were formulated and cryopreserved separately and stored. The cryopreserved CD4+ and CD8+ anti-CD19 CAR-expressing cells from each donor were thawed, and combined at approximately a 1:1 CAR+CD4+:CD8+ ratio prior to use. Approximately 2.5×10^5 cells of the generated CAR+ T cell composition were stimulated overnight with 1 μg/ml of a CAR-specific anti-idiotypic antibody in the presence of 3-(5-amino-2-methyl-4-oxo-4H-quinazolin-3-yl)-piperidine-2,6-dione (Compound B) or (S)-3-[4-(4-morpholin-4-ylmethyl-benzyloxy)-1-oxo-1,3-dihydro-isoindol-2-yl]-piperidine-2,6-dione (Compound A) at concentrations ranging from 10 to 10000 nM or a vehicle control overnight at 37° C., 5% C02. Following overnight incubation, anti-CD19 CAR-expressing T cells were stained with antibodies and analyzed by flow cytometry to assess intracellular levels of Ikaros and Aiolos in CD4+ CAR+ or CD8+ CAR+ cells, as measured by median fluorescence intensity (MFI). Median fluorescence intensity (MFI) values for Ikaros and Aiolos were normalized and calculated as a percentage relative to vehicle control. […] The EC50 for reducing Aiolos and Ikaros expression was calculated as determined from the concentration of the inhibitor that reduced Aiolos or Ikaros MFI to 50% of its maximal MFI in the absence of the inhibitor.

[1] = system: Granta-519 tumor spheroids; assay: Spheroid tumor growth assay, rescue treatment of chronically stimulated CAR T cells; format: cell-based, human
Method: Anti-CD19 CAR-expressing T cells from three donors, produced as described in Example 1, were stimulated under conditions to induce chronic stimulation (to produce hypofunctional, exhausted T cells) and then were subsequently treated (rescue) with (S)-3-[4-(4-morpholin-4-ylmethyl-benzyloxy)-1-oxo-1,3-dihydro-isoindol-2-yl]-piperidine-2,6-dione (Compound A), or a vehicle control. Long-term, chronic stimulation was carried out by stimulation of CAR T cells with 30 μg/mL plate-bound anti-idiotypic (anti-ID) antibody for 6 days, substantially as described in Example 3 but in the absence of Compound A. After the chronic stimulation, the CAR-T cells were rechallenged with CD19-expressing target cells in the presence of Compound A, and cytolytic activity or cytokine production was assessed.
CAR T cells that had been stimulated for 6 days with anti-ID were co-cultured by incubation with Granta-519 tumor spheroids, in the presence or absence of Compound A (0.001 μM or 0.01 μM). Cells were assessed at various time points for cytolytic function and cytokine function. For comparison, cytolytic activity was also assessed for cells that had been similarly chronically stimulated with anti-ID, followed by co-culture in the presence of 1 μM or 0.1 μM Compound B. Averaged measurement of tumor spheroid size at Day 9 following co-culture with CAR-T cells was assessed. […] The improvement in cytolytic function was greater following rescue treatment with Compound A than Compound B. Cytokines (IFNγ, IL-2 and TNFalpha) were measured from supernatant of the chronically stimulated CAR T cells above that had been co-cultured for 5 days with CD19 tumor spheroids. The log 2 fold change compared to control cells (chronically stimulated cells that had not been treated with immunomodulatory compound) is shown in FIG. 4C.

[2] = system: A549.CD19 tumor spheroids; assay: A549.CD19 tumor spheroid model, rescue treatment of chronically stimulated CAR T cells; format: cell-based, human
Method: An A549.CD19 tumor spheroid model was further used to elucidate the T cell modulatory activity of the compounds. A549.CD19 tumor spheroid growth is insensitive to monotherapy treatment with the immunomodulatory compounds. CAR T cells that had been stimulated for 6 days with anti-ID were co-cultured by incubation with A549.CD19 tumor spheroids, in the presence of presence of Compound A (0.001 μM, 0.01 μM, or 0.1 μM). Averaged measurement of tumor spheroid size at Day 9 following co-culture with CAR-T cells was assessed. […] The number of CAR T cells in co-cultures with tumor spheroids, measured at day 5, were increased with treatment with Compound A (FIG. 5B).
Cytokines (IFNγ, IL-2 and TNFalpha) were measured from supernatant of the chronically stimulated CAR T cells above that had been co-cultured for 5 days with CD19 tumor spheroids. The log 2 fold change compared to control cells (chronically stimulated cells that had not been concurrently treated with immunomodulatory compound) is shown in FIG. 5E.

Cmax in healthy subjects = conditions: human, in vivo, doses of 0.3 mg and 1.0 mg

SMILES: O=C1CC[C@H](N2Cc3c(OCc4ccc(CN5CCOCC5)cc4)cccc3C2=O)C(=O)N1 [Compound A, (S)-3-[4-(4-morpholin-4-ylmethyl-benzyloxy)-1-oxo-1,3-dihydro-isoindol-2-yl]-piperidine-2,6-dione]
- intracellular Aiolos expression (Aiolos; 10 to 10000 nM, overnight): concentration dependent decrease
- potency relative to Compound B in degradation of Ikaros and Aiolos (Aiolos; CAR-expressing T cells): 10-20 fold
- EC50 (Aiolos; overnight incubation, 1 μg/ml anti-idiotypic antibody, average of donors (range, 95% confidence interval)): 2.5 nM
- CAR T cell cytolytic function, Granta-519 spheroid growth ([1]; 0.001 μM or 0.01 μM, Day 9): improved
- IFNγ in co-culture supernatant ([1]; 5 days co-culture with spheroids): statistically significant increase
- improvement in cytolytic function compared with Compound B ([1]; Compound B 1 μM or 0.1 μM): greater
- number of CAR T cells in co-cultures with tumor spheroids ([2]; day 5, 0.01 μM or 0.1 μM): increased
- CAR T cell cytolytic function, A549.CD19 spheroid growth ([2]; rescue, 0.001, 0.01 or 0.1 μM, Day 9): improved
- IFNγ in co-culture supernatant ([2]; rescue, 5 days co-culture with spheroids): statistically significant increase
- Cmax (Cmax in healthy subjects): 2.41 to 11.8 nM
